According to patent US12509447B2, “Small molecule compound” (Technoderma Medicines Pte Ltd, priority 2019, dated 2025):

What was measured:
Type in all cases: biochemical
JAK1 = JAK1 (Homo sapiens, UniProt P23458); experiment: Inhibition of JAK kinase activity, EZ Reader microfluidic phosphorylation of peptide substrate: JAK1; conditions: JAK1 kinase 20 nM; highest final concentration 10 μM, 1:3 serial dilution, 8 points, duplicates
Procedure, shortened: (§1)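 Microfluidic mobility-shift assay reading fluorescent peptide substrate and product; kinases at 20 nM (JAK1) or 1 nM (JAK2, JAK3, Tyk2) in pH 7.4 HEPES with 10 mM MgCl2, run at room temperature to 20-30% conversion, then stopped with EDTA. Compounds tested from 10 μM top, 1:3 over 8 points in duplicate; IC50 fitted from % conversion.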

JAK3 = target: T1, JAK3 (Homo sapiens, UniProt P52333); experiment: Inhibition of JAK kinase activity, EZ Reader microfluidic phosphorylation of peptide substrate: JAK3; conditions: JAK3 kinase 1 nM; highest final concentration 10 μM, 1:3 serial dilution, 8 points, duplicates
T1 sequence (P52333 1-1124): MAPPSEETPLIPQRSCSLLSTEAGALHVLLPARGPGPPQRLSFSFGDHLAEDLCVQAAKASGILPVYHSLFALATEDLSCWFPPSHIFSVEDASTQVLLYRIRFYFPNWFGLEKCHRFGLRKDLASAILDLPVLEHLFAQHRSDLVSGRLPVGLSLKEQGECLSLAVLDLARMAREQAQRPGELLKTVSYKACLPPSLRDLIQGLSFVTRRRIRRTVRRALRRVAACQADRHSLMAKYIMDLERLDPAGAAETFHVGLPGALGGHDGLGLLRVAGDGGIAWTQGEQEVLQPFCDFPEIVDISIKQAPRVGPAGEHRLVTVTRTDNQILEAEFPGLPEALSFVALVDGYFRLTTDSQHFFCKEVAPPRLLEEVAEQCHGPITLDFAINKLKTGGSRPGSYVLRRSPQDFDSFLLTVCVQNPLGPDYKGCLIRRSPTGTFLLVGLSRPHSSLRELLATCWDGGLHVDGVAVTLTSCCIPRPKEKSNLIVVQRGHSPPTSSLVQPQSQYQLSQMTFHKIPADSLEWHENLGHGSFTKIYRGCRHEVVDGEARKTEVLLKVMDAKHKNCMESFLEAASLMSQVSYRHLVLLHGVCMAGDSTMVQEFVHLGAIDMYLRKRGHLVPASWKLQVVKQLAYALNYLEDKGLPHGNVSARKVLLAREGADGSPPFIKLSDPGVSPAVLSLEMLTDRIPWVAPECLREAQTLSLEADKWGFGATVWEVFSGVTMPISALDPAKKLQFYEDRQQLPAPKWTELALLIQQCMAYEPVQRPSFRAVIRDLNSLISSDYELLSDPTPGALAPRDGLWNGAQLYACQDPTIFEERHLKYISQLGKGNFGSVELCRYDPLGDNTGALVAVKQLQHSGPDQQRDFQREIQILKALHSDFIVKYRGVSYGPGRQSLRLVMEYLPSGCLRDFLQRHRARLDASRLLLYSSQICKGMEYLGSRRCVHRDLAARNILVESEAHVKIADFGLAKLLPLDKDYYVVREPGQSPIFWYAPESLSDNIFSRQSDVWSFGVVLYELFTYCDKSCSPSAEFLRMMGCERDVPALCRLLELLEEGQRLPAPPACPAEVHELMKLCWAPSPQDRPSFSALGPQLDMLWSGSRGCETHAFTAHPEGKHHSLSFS
Procedure, shortened: as §1

Tyk2 = Tyk2 (Homo sapiens, UniProt P29597); experiment: Inhibition of JAK kinase activity, EZ Reader microfluidic phosphorylation of peptide substrate: Tyk2; conditions: Tyk2 kinase 1 nM; highest final concentration 10 μM, 1:3 serial dilution, 8 points, duplicates
Tyk2, sequence (P29597 whole entry): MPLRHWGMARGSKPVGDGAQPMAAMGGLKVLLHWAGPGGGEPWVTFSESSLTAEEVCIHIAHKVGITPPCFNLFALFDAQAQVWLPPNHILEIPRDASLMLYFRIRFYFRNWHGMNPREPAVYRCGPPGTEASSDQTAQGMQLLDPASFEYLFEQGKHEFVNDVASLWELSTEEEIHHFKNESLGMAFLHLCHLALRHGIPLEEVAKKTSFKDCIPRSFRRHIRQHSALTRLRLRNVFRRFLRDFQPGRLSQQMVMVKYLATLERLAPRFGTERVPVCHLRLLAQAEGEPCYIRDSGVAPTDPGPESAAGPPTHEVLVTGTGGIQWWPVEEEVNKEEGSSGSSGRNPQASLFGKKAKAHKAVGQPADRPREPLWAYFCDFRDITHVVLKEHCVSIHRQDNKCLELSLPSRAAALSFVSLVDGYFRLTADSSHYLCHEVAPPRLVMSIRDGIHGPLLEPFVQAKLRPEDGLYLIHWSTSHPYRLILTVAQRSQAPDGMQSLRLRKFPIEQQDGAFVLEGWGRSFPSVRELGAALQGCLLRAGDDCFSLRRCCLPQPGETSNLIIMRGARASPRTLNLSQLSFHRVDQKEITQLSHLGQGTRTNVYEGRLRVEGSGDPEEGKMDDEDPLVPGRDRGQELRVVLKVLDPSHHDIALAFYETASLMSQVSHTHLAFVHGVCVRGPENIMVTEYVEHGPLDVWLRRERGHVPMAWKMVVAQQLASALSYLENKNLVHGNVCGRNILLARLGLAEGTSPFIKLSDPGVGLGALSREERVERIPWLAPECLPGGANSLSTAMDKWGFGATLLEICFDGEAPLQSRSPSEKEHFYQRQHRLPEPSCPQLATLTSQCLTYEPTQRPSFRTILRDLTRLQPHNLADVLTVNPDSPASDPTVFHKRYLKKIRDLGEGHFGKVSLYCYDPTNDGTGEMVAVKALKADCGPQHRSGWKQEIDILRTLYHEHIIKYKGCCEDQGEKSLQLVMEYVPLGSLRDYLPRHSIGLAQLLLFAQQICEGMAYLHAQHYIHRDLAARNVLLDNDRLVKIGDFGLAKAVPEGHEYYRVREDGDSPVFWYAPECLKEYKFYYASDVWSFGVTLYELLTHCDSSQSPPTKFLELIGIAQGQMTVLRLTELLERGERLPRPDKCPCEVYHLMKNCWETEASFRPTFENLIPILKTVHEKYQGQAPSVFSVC
Procedure, shortened: as §1

JAK2 = JAK2 (Homo sapiens, UniProt O60674); experiment: Inhibition of JAK kinase activity, EZ Reader microfluidic phosphorylation of peptide substrate: JAK2; conditions: JAK2 kinase 1 nM; highest final concentration 10 μM, 1:3 serial dilution, 8 points, duplicates
JAK2, sequence (O60674 whole entry): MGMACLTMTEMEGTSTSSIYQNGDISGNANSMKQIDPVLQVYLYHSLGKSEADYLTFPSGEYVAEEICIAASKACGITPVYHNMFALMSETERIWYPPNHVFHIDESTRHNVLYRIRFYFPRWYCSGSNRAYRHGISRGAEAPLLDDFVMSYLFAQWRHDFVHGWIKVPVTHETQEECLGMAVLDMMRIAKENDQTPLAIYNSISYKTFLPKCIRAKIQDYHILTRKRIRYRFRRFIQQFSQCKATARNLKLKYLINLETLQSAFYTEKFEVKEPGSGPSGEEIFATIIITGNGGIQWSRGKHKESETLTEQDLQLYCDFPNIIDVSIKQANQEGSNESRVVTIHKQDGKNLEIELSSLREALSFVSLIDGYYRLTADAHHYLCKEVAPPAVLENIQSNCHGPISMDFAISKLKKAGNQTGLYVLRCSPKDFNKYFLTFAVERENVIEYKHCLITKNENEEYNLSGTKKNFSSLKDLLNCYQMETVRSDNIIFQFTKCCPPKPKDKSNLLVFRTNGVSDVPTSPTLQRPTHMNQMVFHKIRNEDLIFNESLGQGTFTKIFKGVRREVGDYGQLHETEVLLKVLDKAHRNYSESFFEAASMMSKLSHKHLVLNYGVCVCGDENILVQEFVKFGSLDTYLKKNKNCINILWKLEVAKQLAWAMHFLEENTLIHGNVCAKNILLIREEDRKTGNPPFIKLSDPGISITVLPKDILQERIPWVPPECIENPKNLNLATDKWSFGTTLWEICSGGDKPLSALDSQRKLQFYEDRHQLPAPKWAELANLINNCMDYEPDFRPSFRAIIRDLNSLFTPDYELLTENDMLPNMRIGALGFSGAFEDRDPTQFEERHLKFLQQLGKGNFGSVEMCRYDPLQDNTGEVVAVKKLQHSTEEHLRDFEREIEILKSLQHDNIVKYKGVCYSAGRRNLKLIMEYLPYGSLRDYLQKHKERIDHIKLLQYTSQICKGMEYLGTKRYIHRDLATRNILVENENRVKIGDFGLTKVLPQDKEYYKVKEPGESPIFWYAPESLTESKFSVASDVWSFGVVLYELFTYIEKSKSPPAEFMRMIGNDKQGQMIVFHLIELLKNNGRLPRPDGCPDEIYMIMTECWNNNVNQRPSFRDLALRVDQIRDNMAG
Procedure, shortened: as §1

JAK1, sequence (P23458 whole entry): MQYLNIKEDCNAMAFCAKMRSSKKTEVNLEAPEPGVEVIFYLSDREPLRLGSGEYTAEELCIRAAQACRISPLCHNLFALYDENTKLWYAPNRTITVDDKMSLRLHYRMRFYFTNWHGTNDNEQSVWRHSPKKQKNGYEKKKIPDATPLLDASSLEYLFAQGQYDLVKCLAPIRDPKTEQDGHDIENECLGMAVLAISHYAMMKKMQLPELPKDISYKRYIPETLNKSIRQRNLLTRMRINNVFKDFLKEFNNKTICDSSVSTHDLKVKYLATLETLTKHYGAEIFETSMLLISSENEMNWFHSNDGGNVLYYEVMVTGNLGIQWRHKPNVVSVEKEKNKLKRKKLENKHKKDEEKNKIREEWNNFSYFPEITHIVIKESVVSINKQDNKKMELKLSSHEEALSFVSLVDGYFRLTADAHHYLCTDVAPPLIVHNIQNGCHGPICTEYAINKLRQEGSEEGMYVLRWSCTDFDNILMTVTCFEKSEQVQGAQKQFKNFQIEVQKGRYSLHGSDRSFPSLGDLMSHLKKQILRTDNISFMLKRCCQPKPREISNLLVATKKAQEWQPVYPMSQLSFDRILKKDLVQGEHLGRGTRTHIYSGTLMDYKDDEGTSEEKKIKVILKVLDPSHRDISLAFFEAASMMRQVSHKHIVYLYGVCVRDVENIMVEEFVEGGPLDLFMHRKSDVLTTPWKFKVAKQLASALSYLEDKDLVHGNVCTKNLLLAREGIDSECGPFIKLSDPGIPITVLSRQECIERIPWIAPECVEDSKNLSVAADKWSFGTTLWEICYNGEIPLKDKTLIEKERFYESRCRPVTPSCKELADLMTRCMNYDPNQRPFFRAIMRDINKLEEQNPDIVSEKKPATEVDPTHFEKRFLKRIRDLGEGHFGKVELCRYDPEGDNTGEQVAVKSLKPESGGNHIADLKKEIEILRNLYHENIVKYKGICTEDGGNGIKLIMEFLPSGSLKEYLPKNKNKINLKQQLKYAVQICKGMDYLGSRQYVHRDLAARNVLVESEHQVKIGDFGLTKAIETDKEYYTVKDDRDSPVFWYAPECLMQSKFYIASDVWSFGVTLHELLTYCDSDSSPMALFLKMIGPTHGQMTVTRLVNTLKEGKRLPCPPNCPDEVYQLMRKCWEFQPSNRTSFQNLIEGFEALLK

IC50 (JAK1) [µM] | IC50 (JAK3) [µM] | IC50 (Tyk2) [µM] | IC50 (JAK2) [µM] | SMILES
1 to 10 | ≥ 10 | 1 to 10 | 1 to 10 | CCS(=O)(=O)N1CC(n2cc(-c3ccnc(Nc4cnn(C)c4)n3)cn2)C1 [TDM-180665, 4-(1-(1-(ethylsulfonyl)azetidin-3-yl)-1H-pyrazol-4-yl)-N-(1-methyl-1H-pyrazol-4-yl)pyrimidin-2-amine]
0.1 to 1 | 1 to 10 | 0.1 to 1 | 0.1 to 1 | Cn1cc(Nc2nccc(-c3cnn(C4(CC#N)CN(C(=O)CC(F)(F)F)C4)c3)n2)cn1 [TDM-180752, 2-(3-(4-(2-((1-methyl-1H-pyrazol-4-yl)amino)pyrimidin-4-yl)-1H-pyrazol-1-yl)-1-(3,3,3-trifluoropropionyl)azetidin-3-yl)acetonitrile]
